Measurements from patent US20240400584A1, “COMPOUNDS AND METHODS FOR MODULATING SPLICING” (REMIX THERAPEUTICS INC., priority 2021, published 2024).

Tests used:
HTT [1] = assay: RT-qPCR splicing assay, HTT AJ/CJ mRNA; assay type: cell-based, human; details: Homo sapiens, 24 h, A673 or K562 cells; for IC50: decrease in canonical junction mRNA; for AC50: increase in alternative junction mRNA
How it was run: (§1)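 Cells: A673 (DMEM/10% FBS) or K562 (IMDM/10% FBS). Dosing: 11-pt 3-fold, top 10 uM final, DMSO ≤0.25%, 24 h, 37° C. Readout: one-step RT-qPCR on lysate, CJ vs AJ isoforms; ΔCt vs housekeeper, ΔΔCt vs DMSO, 2^(−ΔΔCt) RQ → % response.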

MYB [2] = assay: RT-qPCR splicing assay, MYB AJ/CJ mRNA; assay type: cell-based; details: Homo sapiens, A673 or K562 cells, 24 hours; for IC50: decrease in canonical junction mRNA; for AC50: increase in alternative junction mRNA
How it was run: as §1

HTT [3] = assay: Gene panel canonical junction qPCR assay, HTT CJ mRNA (Table 7); assay type: cell-based, human; details: Homo sapiens, read-out: HTT CJ mRNA decrease IC50
How it was run: (§2)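 A673/K562 cells + cpd → lysate → cDNA → qPCR, CY5 5′ nuclease probe set overlapping canonical junction. Normalized to GAPDH/GUSB/PPIA and DMSO via ΔΔCt, RQ → % response over fixed ΔCt window. IC50 = 50% CJ decrease, 4PL fit.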

SMN2 = assay: Gene panel canonical junction qPCR assay, SMN2 CJ mRNA (Table 7); assay type: cell-based; details: Homo sapiens, read-out: SMN2 CJ mRNA decrease IC50
How it was run: as §2

MYB [4] = assay: Gene panel canonical junction qPCR assay, MYB CJ mRNA (Table 7); assay type: cell-based; details: Homo sapiens, read-out: MYB CJ mRNA decrease IC50
How it was run: as §2

Target C = assay: Gene panel canonical junction qPCR assay, Target C CJ mRNA (Table 7); assay type: cell-based, human; details: Homo sapiens, read-out: Target C CJ mRNA decrease IC50
How it was run: as §2

Row | SMILES | IC50 (HTT [1]) [µM] | IC50 (MYB [2]) [µM] | IC50 (HTT [3]) [µM] | IC50 (SMN2) [µM] | IC50 (MYB [4]) [µM] | IC50 (Target C) [µM] | AC50 (HTT [1]) [µM] | AC50 (MYB [2]) [µM]
1 | COc1cc(-c2cc(F)c3c(c2)COc2nc(N(C)[C@@H]4C[C@H]5CC[C@@H](C4)N5)ccc2-3)cnn1 [Compound 254, (1R,3S,5S)—N-[10-fluoro-8-(6-methoxypyridazin-4-yl)-6H-isochromeno[3,4-b]pyridin-3-yl]-N-methyl-8-azabicyclo[3.2.1]octan-3-amine; bis(trifluoroacetaldehyde)] | < 0.1 | 0.1 to 1 | < 0.1 | < 0.1 | 0.1 to 1 | 0.1 to 1 | < 0.1 | 0.1 to 1
2 | CC(C)(C)N[C@H]1CCN(c2ccc3c(n2)OCc2cc(-c4cn[nH]c4)ccc2-3)C1 [Compound 258, (3S)—N-tert-butyl-1-[8-(1H-pyrazol-4-yl)-6H-isochromeno[3,4-b]pyridin-3-yl]pyrrolidin-3-amine] | 0.1 to 1 | 1 to 10 | 0.1 to 1 | 0.1 to 1 | 1 to 10 | 0.1 to 1 | 0.1 to 1 | 0.1 to 1
3 | Fc1cc2c(cc1-c1cn[nH]c1)COc1nc(O[C@@H]3C[C@H]4CC[C@@H](C3)N4)ccc1-2 [Compound 260] | < 0.1 | 0.1 to 1 | < 0.1 | < 0.1 | 0.1 to 1 | 0.1 to 1 | < 0.1 | < 0.1
4 | Cn1ncc(-c2ccc3c(c2)COc2nc(OC4CC5CC(F)(F)C(C4)N5)ccc2-3)cc1=O (centres unmarked) [Compound 261, 5-[3-({6,6-difluoro-8-azabicyclo[3.2.1]octan-3-yl}oxy)-6H-isochromeno[3,4-b]pyridin-8-yl]-2-methylpyridazin-3-one] | > 10 | > 10 | > 10 | > 10 | > 10 | > 10 | > 10 | > 10
5 | CC(C)(C)NC1CCN(c2ccc3c(n2)OCc2cc(-c4cnnc(C5CC5)c4)ccc2-3)C1 (centres unmarked) [Compound 266, N-tert-butyl-1-[8-(6-cyclopropylpyridazin-4-yl)-6H-isochromeno[3,4-b]pyridin-3-yl]pyrrolidin-3-amine] | > 10 | > 10 | > 10 | 1 to 10 | > 10 | > 10 | > 10 | > 10
6 | CC(C)(C)NC1CCN(c2ccc3c(n2)OCc2cc(-c4cnnc(OC5CC5)c4)ccc2-3)C1 (centres unmarked) [Compound 268, N-tert-butyl-1-[8-(6-cyclopropoxypyridazin-4-yl)-6H-isochromeno[3,4-b]pyridin-3-yl]pyrrolidin-3-amine] | 1 to 10 | > 10 | 1 to 10 | 1 to 10 | > 10 | > 10 | 1 to 10 | > 10
7 | COc1cc(-c2ccc3c(c2)COc2nc(N4CC[C@H](NC(C)(C)C)C4)ccc2-3)cnn1 [Compound 269, (3S)—N-tert-butyl-1-[8-(6-methoxypyridazin-4-yl)-6H-isochromeno[3,4-b]pyridin-3-yl]pyrrolidin-3-amine] | < 0.1 | 0.1 to 1 | < 0.1 | < 0.1 | 0.1 to 1 | 0.1 to 1 | 0.1 to 1 | 1 to 10
8 | COc1cc(-c2ccc3c(c2)COc2nc(N(C)C4CC(C)(C)NC(C)(C)C4)ncc2-3)cnn1 [Compound 276, N-[8-(6-methoxypyridazin-4-yl)-6H-isochromeno[3,4-d]pyrimidin-3-yl]-N,2,2,6,6-pentamethylpiperidin-4-amine] | 0.1 to 1 | 1 to 10 | 0.1 to 1 | 0.1 to 1 | 1 to 10 | 0.1 to 1 | 0.1 to 1 | 1 to 10
9 | CN(c1ncc2c(n1)OCc1cc(-c3cnnc(O)c3)ccc1-2)C1CC(C)(C)NC(C)(C)C1 [Compound 277, 5-{3-[methyl(2,2,6,6-tetramethylpiperidin-4-yl)amino]-6H-isochromeno[3,4-d]pyrimidin-8-yl}pyridazin-3-ol] | 0.1 to 1 | 1 to 10 | 0.1 to 1 | 0.1 to 1 | 1 to 10 | 1 to 10 | 0.1 to 1 | 1 to 10

The next lines start with results.

Row | IC50 (HTT [1]) [µM] | IC50 (MYB [2]) [µM] | IC50 (HTT [3]) [µM] | IC50 (SMN2) [µM] | IC50 (MYB [4]) [µM] | IC50 (Target C) [µM] | SMILES | AC50 (HTT [1]) [µM] | AC50 (MYB [2]) [µM]
10 | 0.1 to 1 | 1 to 10 | 0.1 to 1 | 0.1 to 1 | 1 to 10 | 1 to 10 | COc1cc(-c2ccc3c(c2)COc2nc(N4CCC(NC5CC5)C4)ccc2-3)cnn1 (centres unmarked) [Compound 255, N-cyclopropyl-1-[8-(6-methoxypyridazin-4-yl)-6H-isochromeno[3,4-b]pyridin-3-yl]pyrrolidin-3-amine] | 1 to 10 | 1 to 10
11 | 0.1 to 1 | 1 to 10 | 0.1 to 1 | 0.1 to 1 | 1 to 10 | 0.1 to 1 | COc1cc(-c2ccc3c(c2)COc2nc(N4CCC(NC5(C)CC5)C4)ccc2-3)cnn1 (centres unmarked) [Compound 256, 1-[8-(6-methoxypyridazin-4-yl)-6H-isochromeno[3,4-b]pyridin-3-yl]-N-(1-methylcyclopropyl)pyrrolidin-3-amine] | 0.1 to 1 | 1 to 10
12 | < 0.1 | 0.1 to 1 | < 0.1 | < 0.1 | 0.1 to 1 | < 0.1 | CC(C)(C)N[C@@H]1CCN(c2ccc3c(n2)OCc2cc(-c4cn[nH]c4)ccc2-3)C1 [Compound 257, (3R)—N-tert-butyl-1-[8-(1H-pyrazol-4-yl)-6H-isochromeno[3,4-b]pyridin-3-yl]pyrrolidin-3-amine] | < 0.1 | 0.1 to 1
13 | > 10 | > 10 | > 10 | > 10 | > 10 | > 10 | CC(C)Oc1cc(-c2ccc3c(c2)COc2nc(N4CCC(NC(C)(C)C)C4)ccc2-3)cnn1 (centres unmarked) [Compound 263, N-tert-butyl-1-[8-(6-isopropoxypyridazin-4-yl)-6H-isochromeno[3,4-b]pyridin-3-yl]pyrrolidin-3-amine] | > 10 | > 10
14 | 0.1 to 1 | 1 to 10 | 0.1 to 1 | 0.1 to 1 | 1 to 10 | 0.1 to 1 | COc1cc(-c2ccc3c(c2)COc2nc(N4CCC(NCC5CC5)C4)ccc2-3)cnn1 (centres unmarked) [Compound 264, N-(cyclopropylmethyl)-1-[8-(6-methoxypyridazin-4-yl)-6H-isochromeno [3,4-b]378yrrolid-3-yl]378yrrolidine-3-amine] | 0.1 to 1 | 1 to 10
15 | < 0.1 | 0.1 to 1 | < 0.1 | < 0.1 | 0.1 to 1 | < 0.1 | COc1cc(-c2ccc3c(c2)COc2nc(N4CC[C@@H](NC(C)(C)C)C4)ccc2-3)cnn1 [Compound 265, (3R)—N-tert-butyl-1-[8-(6-methoxypyridazin-4-yl)-6H-isochromeno[3,4-b]376yrrolid-3-yl]376yrrolidine-3-amine] | < 0.1 | < 0.1
16 | 0.1 to 1 | > 10 | 0.1 to 1 | 0.1 to 1 | > 10 | 1 to 10 | CCOc1cc(-c2ccc3c(c2)COc2nc(N4CCC(NC(C)(C)C)C4)ccc2-3)cnn1 (centres unmarked) [Compound 267, N-tert-butyl-1-[8-(6-ethoxypyridazin-4-yl)-6H-isochromeno [3,4-b]pyridin-3-yl]pyrrolidin-3-amine] | 1 to 10 | > 10
17 | < 0.1 | 0.1 to 1 | < 0.1 | < 0.1 | 0.1 to 1 | 0.1 to 1 | COc1cc(-c2ccc3c(c2)COc2nc(N4CC[C@H](N(C)C(C)(C)C)C4)ccc2-3)cnn1 [Compound 270, (3S)—N-tert-butyl-1-[8-(6-methoxypyridazin-4-yl)-6H-isochromeno[3,4-b]pyridin-3-yl]-N-methylpyrrolidin-3-amine] | < 0.1 | 0.1 to 1
18 | < 0.1 | 0.1 to 1 | < 0.1 | < 0.1 | 0.1 to 1 | 0.1 to 1 | COc1cc(-c2ccc3c(c2)COc2nc(N4CC[C@@H](N(C)C(C)(C)C)C4)ccc2-3)cnn1 [Compound 271, (3R)—N-tert-butyl-1-[8-(6-methoxypyridazin-4-yl)-6H-isochromeno [3,4-b]377yrrolid-3-yl]-N-methylpyrrolidin-3-amine] | < 0.1 | 0.1 to 1
19 | 1 to 10 | > 10 | 1 to 10 | 1 to 10 | > 10 | > 10 | CC(C)(C)NC1CCN(c2ccc3c(n2)OCc2cc(-c4ccnnc4)ccc2-3)C1 (centres unmarked) [Compound 272, N-tert-butyl-1-[8-(pyridazin-4-yl)-6H-isochromeno[3,4-b]pyridin-3-yl]pyrrolidin-3-amine] | 1 to 10 | > 10
